# System: 521955-158-R6-J3-PDC complex spheroid growth, % test/control
# Assay: Anticancer human tumor 521955-158-R6-J3-PDC patient-derived pancreatic carcinoma cell line growth inhibition [Asc]
# Details: for IC50: curve of first compound; for viability, T/C: stronger effect = lower value
# Summary of the method: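 Complex solid-tumor spheroids incorporating human endothelial and mesenchymal stem cells received single agents or combinations over half-log dilution ranges anchored to clinical Cmax.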
# 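Also: spheroids exposed to compounds for 7 days.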
# 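For viability, T/C in this document: 100% = DMSO vehicle control wells.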
structure (smiles),measurement,setting,value
C=C(F)C(=O)N1CCN(c2nc(OCC3CCCN3C)nc3c2CCN(c2cccc4cccc(Cl)c24)C3)CC1CC#N (centres undefined) + Cc1c(S(C)(=O)=O)c(-c2cc(F)cc(N3CCN(c4ccc(NS(=O)(=O)c5ccc(NC(CCN6CCC(C(=O)OCCCP(=O)(O)O)CC6)CSc6ccccc6)c(S(=O)(=O)C(F)(F)F)c5)cc4)CC3)c2)c(-c2ccc(Cl)cc2)n1C(C)C,IC50,second compound 0.0316 µM,3740 nM
same,IC50,second compound 0.1 µM,1000 nM
same,IC50,second compound 0.316 µM,111 nM
same,IC50,second compound 1 µM,< 31.6 nM
same,IC50,second compound 3.16 µM,< 31.6 nM
same,IC50,second compound 10 µM,< 31.6 nM
same,"viability, T/C","second compound 0.0316 µM, first compound 0.0316 µM",79.3%
same,"viability, T/C","second compound 0.0316 µM, first compound 0.1 µM",79.6%
same,"viability, T/C","second compound 0.0316 µM, first compound 0.316 µM",73.5%
same,"viability, T/C","second compound 0.0316 µM, first compound 1 µM",73.3%
same,"viability, T/C","second compound 0.0316 µM, first compound 3.16 µM",59.1%
same,"viability, T/C","second compound 0.0316 µM, first compound 10 µM",0.31%
same,"viability, T/C","second compound 0.1 µM, first compound 0.0316 µM",80.3%
same,"viability, T/C","second compound 0.1 µM, first compound 0.1 µM",65.3%
same,"viability, T/C","second compound 0.1 µM, first compound 0.316 µM",58.5%
same,"viability, T/C","second compound 0.1 µM, first compound 1 µM",47.1%
same,"viability, T/C","second compound 0.1 µM, first compound 3.16 µM",39.6%
same,"viability, T/C","second compound 0.1 µM, first compound 10 µM",0.27%
same,"viability, T/C","second compound 0.316 µM, first compound 0.0316 µM",57.9%
same,"viability, T/C","second compound 0.316 µM, first compound 0.1 µM",49.6%
same,"viability, T/C","second compound 0.316 µM, first compound 0.316 µM",37.9%
same,"viability, T/C","second compound 0.316 µM, first compound 1 µM",36.9%
same,"viability, T/C","second compound 0.316 µM, first compound 3.16 µM",23.3%
same,"viability, T/C","second compound 0.316 µM, first compound 10 µM",0.26%
same,"viability, T/C","second compound 1 µM, first compound 0.0316 µM",40.1%
same,"viability, T/C","second compound 1 µM, first compound 0.1 µM",34.3%
same,"viability, T/C","second compound 1 µM, first compound 0.316 µM",28.4%
same,"viability, T/C","second compound 1 µM, first compound 1 µM",17.8%
same,"viability, T/C","second compound 1 µM, first compound 3.16 µM",8.04%
same,"viability, T/C","second compound 1 µM, first compound 10 µM",0.21%
same,"viability, T/C","second compound 3.16 µM, first compound 0.0316 µM",18.4%
same,"viability, T/C","second compound 3.16 µM, first compound 0.1 µM",16.9%
same,"viability, T/C","second compound 3.16 µM, first compound 0.316 µM",15.8%
same,"viability, T/C","second compound 3.16 µM, first compound 1 µM",10%
same,"viability, T/C","second compound 3.16 µM, first compound 3.16 µM",0.82%
same,"viability, T/C","second compound 3.16 µM, first compound 10 µM",0.2%
same,"viability, T/C","second compound 10 µM, first compound 0.0316 µM",13.4%
same,"viability, T/C","second compound 10 µM, first compound 0.1 µM",18.4%
same,"viability, T/C","second compound 10 µM, first compound 0.316 µM",21.8%
same,"viability, T/C","second compound 10 µM, first compound 1 µM",9.59%
same,"viability, T/C","second compound 10 µM, first compound 3.16 µM",0.77%
same,"viability, T/C","second compound 10 µM, first compound 10 µM",0.15%
CCN1C(C(=O)NC23CCC(C(=O)O)(CC2)CC3)C(c2cccc(Cl)c2F)C2(C(=O)Nc3cc(Cl)ccc32)C12CCCCC2 (centres undefined) + Cc1c(S(C)(=O)=O)c(-c2cc(F)cc(N3CCN(c4ccc(NS(=O)(=O)c5ccc(NC(CCN6CCC(C(=O)OCCCP(=O)(O)O)CC6)CSc6ccccc6)c(S(=O)(=O)C(F)(F)F)c5)cc4)CC3)c2)c(-c2ccc(Cl)cc2)n1C(C)C,IC50,second compound 0.0316 µM,> 3000 nM
same,IC50,second compound 0.1 µM,> 3000 nM
same,IC50,second compound 0.316 µM,< 9.49 nM
same,IC50,second compound 1 µM,< 9.49 nM
same,IC50,second compound 3.16 µM,< 9.49 nM
same,IC50,second compound 10 µM,< 9.49 nM
same,"viability, T/C","second compound 0.0316 µM, first compound 0.00949 µM",102%
same,"viability, T/C","second compound 0.0316 µM, first compound 0.03 µM",78.8%
same,"viability, T/C","second compound 0.0316 µM, first compound 0.0949 µM",72.6%
same,"viability, T/C","second compound 0.0316 µM, first compound 0.3 µM",70.7%
same,"viability, T/C","second compound 0.0316 µM, first compound 0.949 µM",84.2%
same,"viability, T/C","second compound 0.0316 µM, first compound 3 µM",73.2%
same,"viability, T/C","second compound 0.1 µM, first compound 0.00949 µM",77.7%
same,"viability, T/C","second compound 0.1 µM, first compound 0.03 µM",75.7%
same,"viability, T/C","second compound 0.1 µM, first compound 0.0949 µM",67.4%
same,"viability, T/C","second compound 0.1 µM, first compound 0.3 µM",66.5%
same,"viability, T/C","second compound 0.1 µM, first compound 0.949 µM",69.4%
same,"viability, T/C","second compound 0.1 µM, first compound 3 µM",50.8%
same,"viability, T/C","second compound 0.316 µM, first compound 0.00949 µM",49.2%
same,"viability, T/C","second compound 0.316 µM, first compound 0.03 µM",51.8%
same,"viability, T/C","second compound 0.316 µM, first compound 0.0949 µM",44%
same,"viability, T/C","second compound 0.316 µM, first compound 0.3 µM",45.4%
same,"viability, T/C","second compound 0.316 µM, first compound 0.949 µM",41.2%
same,"viability, T/C","second compound 0.316 µM, first compound 3 µM",31.7%
same,"viability, T/C","second compound 1 µM, first compound 0.00949 µM",41.2%
same,"viability, T/C","second compound 1 µM, first compound 0.03 µM",25.7%
same,"viability, T/C","second compound 1 µM, first compound 0.0949 µM",39.5%
same,"viability, T/C","second compound 1 µM, first compound 0.3 µM",35%
same,"viability, T/C","second compound 1 µM, first compound 0.949 µM",30.6%
same,"viability, T/C","second compound 1 µM, first compound 3 µM",25.2%
same,"viability, T/C","second compound 3.16 µM, first compound 0.00949 µM",19.7%
same,"viability, T/C","second compound 3.16 µM, first compound 0.03 µM",17.3%
same,"viability, T/C","second compound 3.16 µM, first compound 0.0949 µM",17.5%
same,"viability, T/C","second compound 3.16 µM, first compound 0.3 µM",14.9%
same,"viability, T/C","second compound 3.16 µM, first compound 0.949 µM",13.9%
same,"viability, T/C","second compound 3.16 µM, first compound 3 µM",9.12%
same,"viability, T/C","second compound 10 µM, first compound 0.00949 µM",14.6%
same,"viability, T/C","second compound 10 µM, first compound 0.03 µM",11.3%
same,"viability, T/C","second compound 10 µM, first compound 0.0949 µM",15.8%
same,"viability, T/C","second compound 10 µM, first compound 0.3 µM",9.21%
same,"viability, T/C","second compound 10 µM, first compound 0.949 µM",18.1%
same,"viability, T/C","second compound 10 µM, first compound 3 µM",1.44%

# — PubChem BioAssay AID1963451 (Molecular Pharmacology Branch, DTP, NCI, 2024)
